Results published in US7932290B2, “Method for the treatment of metabolic disorders” (Wellstat Biologics Corporation, priority 2003, dated 2011).
Blank lines part the entries; values can stand above or below the compound they belong to.

Columns and labels:
[1] = tested on: male ob/ob mouse model of Type II diabetes; assay: Antidiabetic effects in ob/ob mice (serum chemistry after 2 weeks daily oral dosing); assay type: in vivo; design: key to Glucose ± SEM: serum glucose in mg/dl; Triglycerides ± SEM / Free Fatty Acids ± SEM: unit not given here; conditions: for Free Fatty Acids ± SEM / Triglycerides ± SEM / Glucose ± SEM: 60 mg/kg; for Glucose / Glucose (% of Control): 60 mg/kg daily oral, 2 weeks; for Glucose ± SEM: Table 15
Experimental: Obese (ob/ob) mice have a defect in the protein leptin, a regulator of appetite and fuel metabolism, leading to hyperphagia, obesity and diabetes.
Male obese (ob/ob homozygote) C57BL/6J mice, approximately 8 weeks of age, were obtained from Jackson Labs (Bar Harbor, Me.) and randomly assigned into groups of 5 animals each such that the body weights (45-50 g) and serum glucose levels (≧300 mg/dl in fed state) were similar between groups. A minimum of 7 days was allowed for adaptation after arrival. All animals were maintained under controlled temperature (23° C.), relative humidity (50±5%) and light (7:00-19:00), and allowed free access to standard chow (Formulab Diet 5020 Quality Lab Products, Elkridge, Md.) and water.
Treatment cohorts were given daily oral doses of vehicle (1% hydroxypropyl-methylcellulose), Compounds BI, CF, CA, CB, CC, or CD for 2 weeks. At the end of the treatment period 100 μl of venous blood was withdrawn in a heparinized capillary tube from the retro-orbital sinus of ob/ob mice for serum chemistry analysis.

[2] = tested on: Human PPARγ LBD fusion protein; assay: Transcription activation potential, GAL4 luciferase reporter in C3A cells; assay type: cell-based
Experimental: Cells were seeded in 24 well plates the day prior to transfection at 5×10^4−2×10^5 cells/well, depending upon cell type. Cells were transfected using Lipofectamine 2000 reagent from Invitrogen. A total of 0.8 μg DNA/well was added to 50 μL of Optimem Reduced Serum media (serum free; Gibco). Lipofectamine 2000 was added (2.5 μL/well) to another tube containing 50 μL of Optimem media. Plasmid DNA was added at a ratio of 4:3 (reporter:activator); where appropriate, salmon sperm DNA was substituted for activator expressing plasmid. […] DNA constructs containing the mouse PPARα or PPARγ LBD fused to the GAL4 DNA binding domain were also used. The two solutions were incubated at room temperature for 5 min, and then combined. The combined solution was incubated at room temperature for approximately 30 min. Cells were washed once with PBS, and 100 μL of transfection mix added to each well. Plates were incubated at 37° C. in a 5% CO2 incubator for 4.5 hr, followed by aspiration of the transfection mix, with plates refed using EMEM complete media (supplemented with 10% FBS, 1× Glutamine). 24 hr post-transfection, plates were treated with the appropriate compounds in EMEM complete media, followed by washing once with PBS and addition of 100 μL 1× reporter lysis buffer/well (Promega) 24 hr after treatment. Plates went through one freeze/thaw cycle prior to analysis. Approximately 10 μL of lysate was added to 100 μL of firefly luciferase substrate, mixed by pipetting, and analyzed on a luminometer for 10 s using the integration function (relative luciferase units/RLU) or on a Microbeta Trilux (luciferase counts per second/LCPS). Each treatment was performed in triplicate, and in multiple, separate experiments.

db/db mice = assay: Antidiabetic effects in db/db mice, Example B (2 weeks daily oral dosing); assay type: in vivo, mouse; conditions: for Glucose (% of Control) / Glucose: 2 weeks; for Glucose: nonfasting; for Free Fatty Acids ± SEM / Triglycerides ± SEM: serum, 2 weeks daily oral, dose not given in Table 17 (see Table 16)
Description: db/db mice have a defect in leptin signaling, leading to hyperphagia, obesity and diabetes. Moreover, unlike ob/ob mice on a C57BL/6J background, db/db mice on a C57BL/KS background undergo failure of their insulin-producing pancreatic islet cells, resulting in progression from hyperinsulinemia (associated with peripheral insulin resistance) to hypoinsulinemic diabetes.
Male obese (db/db homozygote) C57BL/Ksola mice approximately 8 weeks of age, were obtained from Jackson Labs (Bar Harbor, Me.) and randomly assigned into groups of 5-7 animals such that the body weights (50-55 g) and serum glucose levels (≧300 mg/dl in fed state) were similar between groups; male lean (db/+heterozygote) mice served as cohort controls. A minimum of 7 days was allowed for adaptation after arrival. All animals were maintained under controlled temperature (23° C.), relative humidity (50±5%) and light (7:00-19:00), and allowed free access to standard chow (Formulab Diet 5008, Quality Lab Products, Elkridge, Md.) and water.
Treatment cohorts were given daily oral doses of Vehicle (1% hydroxypropylmethylcellulose), Compounds BI, CE, BT, BV, […] or Fenofibrate for 2 weeks. At the end of the treatment period 100 μl of venous blood was withdrawn in a heparinized capillary tube from the retro-orbital sinus of db/db mice for serum chemistry analysis.

[3] = target: T1, Human PPARα LBD fusion protein (Homo sapiens, UniProt Q07869); assay: Transcription activation potential, GAL4 luciferase reporter in C3A cells; assay type: cell-based
T1 construct: a.a; 167-468)
T1 sequence (Q07869 167-468): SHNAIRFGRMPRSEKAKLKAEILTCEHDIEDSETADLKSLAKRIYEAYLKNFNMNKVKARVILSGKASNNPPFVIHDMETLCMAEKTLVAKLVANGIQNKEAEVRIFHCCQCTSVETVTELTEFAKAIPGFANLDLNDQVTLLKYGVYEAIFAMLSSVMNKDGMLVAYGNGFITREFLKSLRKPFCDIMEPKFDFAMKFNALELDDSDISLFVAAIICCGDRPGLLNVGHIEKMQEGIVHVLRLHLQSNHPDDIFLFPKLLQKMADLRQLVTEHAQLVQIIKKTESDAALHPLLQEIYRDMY
Experimental: (§1) Cells were seeded in 24 well plates the day prior to transfection at 5×10^4−2×10^5 cells/well, depending upon cell type. Cells were transfected using Lipofectamine 2000 reagent from Invitrogen. A total of 0.8 μg DNA/well was added to 50 μL of Optimem Reduced Serum media (serum free; Gibco). Lipofectamine 2000 was added (2.5 μL/well) to another tube containing 50 μL of Optimem media. Plasmid DNA was added at a ratio of 4:3 (reporter:activator); where appropriate, salmon sperm DNA was substituted for activator expressing plasmid. The reporter plasmid used was pFR-Luc, which has the firefly luciferase gene under the control of a GAL4 UAS ([…]) containing promoter. The activator expressing plasmids contain yeast GAL4 DNA binding domain (dbd) fusion of either human PPARα ligand binding domain (LBD; a.a. 167-468) or human PPARγ LBD (a.a. 176-479). DNA constructs containing the mouse PPARα or PPARγ LBD fused to the GAL4 DNA binding domain were also used. The two solutions were incubated at room temperature for 5 min, and then combined. The combined solution was incubated at room temperature for approximately 30 min. Cells were washed once with PBS, and 100 μL of transfection mix added to each well. Plates were incubated at 37° C. in a 5% CO2 incubator for 4.5 hr, followed by aspiration of the transfection mix, with plates refed using EMEM complete media (supplemented with 10% FBS, 1× Glutamine). 24 hr post-transfection, plates were treated with the appropriate compounds in EMEM complete media, followed by washing once with PBS and addition of 100 μL 1× reporter lysis buffer/well (Promega) 24 hr after treatment. Plates went through one freeze/thaw cycle prior to analysis. Approximately 10 μL of lysate was added to 100 μL of firefly luciferase substrate, mixed by pipetting, and analyzed on a luminometer for 10 s using the integration function (relative luciferase units/RLU) or on a Microbeta Trilux (luciferase counts per second/LCPS). Each treatment was performed in triplicate, and in multiple, separate experiments.

[4] = target: T2, Mouse PPARα LBD fusion protein (Mus musculus, UniProt P23204); assay: as above; assay type: cell-based
T2 sequence (P23204 239-466): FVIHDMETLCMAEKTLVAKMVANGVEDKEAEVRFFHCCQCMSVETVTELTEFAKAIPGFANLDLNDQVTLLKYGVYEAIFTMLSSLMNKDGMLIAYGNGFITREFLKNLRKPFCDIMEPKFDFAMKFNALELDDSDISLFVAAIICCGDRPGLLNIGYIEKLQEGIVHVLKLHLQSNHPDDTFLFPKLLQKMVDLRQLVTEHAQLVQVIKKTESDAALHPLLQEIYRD
Experimental: as §1

Structure (SMILES): Cc1cccc(C)c1COc1ccccc1 [CA, (2,6-Dimethylbenzyloxy)benzene]
Free Fatty Acids ± SEM [1]: 1572.2 ± 118.0 | Triglycerides ± SEM [1]: 92.6 ± 13.7 | Glucose [1]: 402.6 ± 61.0 mg/dL | Glucose (% of Control) [1]: 95 ± 14.0 % of Control | Glucose ± SEM [1]: 402.6 ± 61.0

Structure (SMILES): CN(CCOc1ccc(CC2SC(=O)NC2=O)cc1)c1ccccn1 (stereo not drawn) [Rosiglitazone, rosiglitazone, reference compound]
transcription activation potential (luciferase) ± standard deviation ([2]; Table 22b line 1 μM, rosiglitazone at one-fifth the listed concentration (0.2 μM)): 124 ± 33.8 LCPS | transcription activation potential (luciferase) ± standard deviation ([2]; Table 22b line 3 μM, rosiglitazone at one-fifth the listed concentration): 134.8 ± 47.8 LCPS | transcription activation potential (luciferase) ± standard deviation ([2]; Table 22b line 10 μM, rosiglitazone at one-fifth the listed concentration): 626.6 ± 227 LCPS | transcription activation potential (luciferase) ± standard deviation ([2]; Table 22b line 30 μM, rosiglitazone at one-fifth the listed concentration): 887.2 ± 338.2 LCPS | transcription activation potential (luciferase) ± standard deviation ([2]; Table 22b line 100 μM, rosiglitazone at one-fifth the listed concentration): 1034.1 ± 400.5 LCPS

Structure (SMILES): Cc1cccc(C)c1COc1cccc(C(=O)CCCC(=O)O)c1 [CD, 5-(3-(2,6-Dimethylbenzyloxy)phenyl)-5-oxopentanoic acid]
Free Fatty Acids ± SEM [1]: 1961.8 ± 194.2 | Triglycerides ± SEM [1]: 119.0 ± 14.2 | Glucose [1]: 505.6 ± 63.5 mg/dL | Glucose (% of Control) [1]: 119.0 ± 15.0 % of Control | Glucose ± SEM [1]: 505.6 ± 63.5

Structure (SMILES): COC(=O)CC(=O)c1cccc(OCc2c(C)cccc2C)c1 [CB, Methyl 3-(3-(2,6-Dimethylbenzyloxy)phenyl)-3-oxopropionate]
Free Fatty Acids ± SEM [1]: 2076.2 ± 169.0 | Triglycerides ± SEM [1]: 118.8 ± 18.0 | Glucose [1]: 494.4 ± 72.3 mg/dL | Glucose (% of Control) [1]: 117.0 ± 17.0 % of Control | Glucose ± SEM [1]: 494.4 ± 72.3

Structure (SMILES): Cc1cccc(C)c1COc1cccc(C(C=O)CC(N)=O)c1 (stereo not drawn) [CC, 3-(3-(2,6,-Dimethylbenzyloxy)phenyl)-4-oxobutyramide]
Triglycerides ± SEM [1]: 91.6 ± 13.4 | Glucose [1]: 444.4 ± 89.5 mg/dL | Glucose (% of Control) [1]: 105.0 ± 21.0 % of Control | Glucose ± SEM [1]: 444.4 ± 89.5

Structure (SMILES): CC(C)OC(=O)C(C)(C)Oc1ccc(C(=O)c2ccc(Cl)cc2)cc1 [Fenofibrate, reference compound]
Glucose (% of Control) (db/db mice; 113 mg/kg daily oral): 81 ± 7 % of Control | Glucose (db/db mice; 113 mg/kg daily oral): 563.2 ± 49.0 mg/dL | Free Fatty Acids ± SEM (db/db mice): 3318.5 ± 208.7 µM | Triglycerides ± SEM (db/db mice): 109.3 ± 9.1 mg/dL

transcription activation potential (luciferase) ± standard deviation ([3]; 1 μM): 181.8 ± 47.6 LCPS | transcription activation potential (luciferase) ± standard deviation ([3]; 3 μM): 153.1 ± 2.8 LCPS | transcription activation potential (luciferase) ± standard deviation ([3]; 10 μM): 315.4 ± 36.5 LCPS | transcription activation potential (luciferase) ± standard deviation ([3]; 30 μM): 648.6 ± 47.5 LCPS | transcription activation potential (luciferase) ± standard deviation ([3]; 100 μM): 412.23 ± 114 LCPS | transcription activation potential (luciferase) ± standard deviation ([4]; 1 μM, Table 20a): 406.73 ± 80.11 LCPS | transcription activation potential (luciferase) ± standard deviation ([4]; 3 μM, Table 20a): 295.8 ± 40.31 LCPS | transcription activation potential (luciferase) ± standard deviation ([4]; 10 μM, Table 20a): 324.37 ± 11.06 LCPS | transcription activation potential (luciferase) ± standard deviation ([4]; 30 μM, Table 20a): 414 ± 122.52 LCPS | transcription activation potential (luciferase) ± standard deviation ([4]; 100 μM, Table 20a): 325.3 ± 91.83 LCPS | transcription activation potential (luciferase) ± standard deviation ([4]; 100 μM, Table 21a): 55972 ± 5162 RLU | transcription activation potential (luciferase) ± standard deviation ([4]; 200 μM, Table 20a): 115.2 ± 21.52 LCPS
Structure (SMILES): Cc1cccc(Nc2cc(Cl)nc(SCC(=O)O)n2)c1C [Wy, reference compound]

Structure (SMILES): COc1cc(C(=O)CCC(=O)O)ccc1OCc1c(C)cccc1C [BT, 4-[[4-(2,6-Dimethylbenzyloxy)-3-methoxy]phenyl]-4-oxobutyric acid]
Glucose (% of Control) (db/db mice; 107 mg/kg daily oral): 99 ± 9 % of Control | Glucose (db/db mice; 107 mg/kg daily oral): 684.3 ± 63.6 mg/dL | Free Fatty Acids ± SEM (db/db mice): 3897.7 ± 291.3 µM | Triglycerides ± SEM (db/db mice): 211.5 ± 21.5 mg/dL

transcription activation potential (luciferase) ± standard deviation ([4]; 100 μM, Table 21a): 4440 ± 213 RLU
Structure (SMILES): CC(C(=O)O)c1cccc(Oc2ccccc2)c1 (stereo not drawn) [fenoprofen, reference compound]
